In US20240390286A1, “PREPARATION OF PHARMACEUTICAL COMPOSITIONS USING SUPERCYCLE VAPOR PHASE DEPOSITION OF METAL OXIDES” (Applied Materials, Inc., priority 2023, published 2024):

What was measured:
Assay type in all cases: physicochemical
[1] = Particle size distribution by laser diffraction before and after coating
Description: As shown in the table below, there is no significant change in particle size distribution after the coating process.

[2] = Indomethacin dissolution, pH 7.2 sodium phosphate buffer, USP2 apparatus (paddle); details: 37° C., 100 rpm
Experimental: In some embodiments, the dissolution or drug release of the coated particles can be assessed by an in vitro release over time (dissolution) analysis. In some embodiments, the dissolution or drug release of the coated particles can be assessed by HPLC analysis. In some embodiments, the dissolution is assessed in methanol. In some embodiments, the dissolution is assessed in a sodium phosphate buffer solution (PBS) (e.g., pH 7.2, with or without surfactant) at 37° C., with a stirring of 100 revolutions per minute (RPM), for more than 1 minute, more than 2 minutes, more than 5 minutes, more than 10 minutes, more than 20 minutes, more than 30 minutes, more than 40 minutes, more than 50 minutes, more than 60 minutes, more than 120 minutes, more than 3 hours, more than 4 hours, more than 5 hours, more than 6 hours, more than 7 hours, more than 8 hours, more than 12 hours, more than 16 hours, more than 24 hours. In some embodiments, the coated particles have a reduced dissolution rate compared to uncoated drug particles. […]

[3] = Indomethacin dissolution, pH 7.2 PIPES buffer, USP4 apparatus (flow through); details: 37° C., 16 ml/min
Experimental: FIG. 8 depicts the results of a study of indomethacin dissolution in pH 7.2 PIPES buffer solution in a USP4 dissolution apparatus (flow through) at 37° C. at a 16 ml/min flow rate. […] Again, the indomethacin release rates for AZO coated particles were in between that of ZnOx coated particles and that of AlOx coated particles. The release rate of AZO coated particles decreases as the Al/Zn ratio increases.

D10 ([1]; laser diffraction): 4.4 ± 0.4 μm
D50 ([1]; laser diffraction): 13.3 ± 0.1 μm
D90 ([1]; laser diffraction): 24.5 ± 0.5 μm
Span ([1]; laser diffraction size distribution): 1.5
indomethacin release profile [2]: immediate indomethacin release profile
indomethacin release profile [3]: immediate indomethacin release
SMILES: COc1ccc2c(c1)c(CC(=O)O)c(C)n2C(=O)c1ccc(Cl)cc1 [UC-m-IMC, indomethacin]
